Results published in patent US6525059B1, “Substituted pyrazoles as p38 kinase inhibitors” (G. D. Searle & Company, priority 1998, dated 2003).
Where “and” joins values, the source holds several entries; their conditions need not be identical. Equal values may be shown once. Where a name gives a salt, the structure may show the parent alone. Read-outs that look alike come from different tables or passages of the source.

Key:
[1] = test system: TNF-α; assay: Rat assay: LPS-challenged rats, serum TNF-α by ELISA; assay type: in vivo; conditions: for inhibition in vivo at 5 mg/kg / inhibition in vivo at 20 mg/kg / inhibition in vivo at 1 mg/kg: Rattus norvegicus, po; for inhibition in vivo at 1 mg/kg: 1.0 mg/kg oral gavage, read-out: ratLPS/% Inh @1.0 (mg/kg)
[2] = test system: human TNF; assay: TNF inhibition: human whole blood assay; assay type: cell-based; conditions: Homo sapiens
[3] = target: T1, human GST-p38 kinase alpha (Homo sapiens, UniProt Q16539); assay: p38 kinase in vitro assay, second format, phosphorylation of EGFRP with 33P-ATP; assay type: biochemical; conditions: read-out: p38α Kinase Assay IC50
T1 construct: The coding region of the human p38a cDNA was obtained by PCR-amplification from RNA isolated from the human monocyte cell line THP.1; made in house; host or cells: E. coli DH10B
T1 sequence (Q16539 whole entry): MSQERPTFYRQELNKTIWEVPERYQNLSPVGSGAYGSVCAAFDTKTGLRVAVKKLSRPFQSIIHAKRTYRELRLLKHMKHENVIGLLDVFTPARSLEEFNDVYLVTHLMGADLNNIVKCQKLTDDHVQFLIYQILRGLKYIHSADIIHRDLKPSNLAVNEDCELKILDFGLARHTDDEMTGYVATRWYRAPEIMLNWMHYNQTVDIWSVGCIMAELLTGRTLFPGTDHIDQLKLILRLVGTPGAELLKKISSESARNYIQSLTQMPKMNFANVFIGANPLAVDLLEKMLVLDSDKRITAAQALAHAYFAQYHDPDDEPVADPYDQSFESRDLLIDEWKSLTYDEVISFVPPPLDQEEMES
Description: A second assay format was also employed that is based on p38 kinase alpha induced phosphorylation of EGFRP (epidermal growth factor receptor peptide, a 21 mer) in the presence of ^33P-ATP. Compounds were tested in 10 fold serial dilutions over the range of 100 μM to 0.001 μM in 10% DMSO. Each concentration of inhibitor was tested in triplicate. Compounds were evaluated in 50 μl reaction volumes in the presence of 25 mM Hepes pH 7.5, 10 mM magnesium acetate, 4% glycerol, 0.4% bovine serum albumin, 0.4 mM DTT, 50 μM unlabeled ATP, 25 μg EGFRP (200 μM), and 0.05 uCi gamma ^33P-ATP. Reactions were initiated by addition of 0.09 μg of activated, purified human GST-p38 kinase alpha. Activation was carried out using GST-MKK6 (5:1, p38: MKK6) for one hour at 30° C. in the presence of 50 μM ATP. Following incubation for 60 minutes at room temperature, the reaction was stopped by addition of 150 μl of AG 1×8 resin in 900 mM sodium formate buffer, pH 3.0 (1 volume resin to 2 volumes buffer). The mixture was mixed three times with pipetting and the resin was allowed to settle. A total of 50 μl of clarified solution head volume was transferred from the reaction wells to Microlite-2 plates. 150 μl of Microscint 40 was then added to each well of the Microlite plate, and the plate was sealed, mixed, and counted.

[4] = target: T2, human p38 kinase alpha (Homo sapiens, UniProt Q16539); assay: p38 kinase in vitro assay, phosphorylation of biotinylated PHAS-I with gamma 32P-ATP; assay type: biochemical
T2 construct: The coding region of the human p38a cDNA was obtained by PCR-amplification from RNA isolated from the human monocyte cell line THP.1; GST (N); made in house; host or cells: E. coli DH10B
T2 sequence (Q16539 whole entry): as above
How it was run: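 MKK6-activated human p38α phosphorylates biotinylated PHAS-I with γ-32P-ATP in 25 mM HEPES pH 7.5, 10 mM Mg acetate, 50 μM unlabeled ATP, 1% DMSO, 30 °C for 1 h or overnight. Compounds at 100–0.001 μM (10-fold steps, triplicate); substrate captured on streptavidin filter plates and counted by scintillation.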

[5] = Table 9, dose 5 mg/kg, read-out: Rat LPS Assay % Inhibition
[6] = Table 9, human whole blood, LPS, read-out: TNF Inhibition-Human Whole Blood Assay
[7] = Table 8, human whole blood, LPS, read-out: TNF Inhibition-Human Whole Blood Assay
[8] = Table 10, human whole blood, LPS, read-out: TNF Inhibition-Human Whole Blood Assay
[9] = read-out: P38 alpha kinase IC50
[10] = 5 mpk oral gavage, 4 h before LPS challenge, read-out: Rat LPS Model % Inhibition @ dose @ predose time
[11] = TNF production, LPS-stimulated human whole blood, read-out: Human Whole Blood IC50
[12] = read-out: Rat LPS Model % Inhibition @ dose @ predose time
[13] = read-out: Human Whole Blood IC50, μM
[14] = 5.0 mg/kg oral gavage, 4 hours before LPS challenge, read-out: ratLPS/% Inh @5.0 (mg/kg)
[15] = TNF production, LPS-stimulated human whole blood, read-out: HWB IC50

C[C@H](O)CNc1cc(-c2c[nH]nc2-c2ccc(F)cc2)ccn1 [Example A-370, (2S)-1-[[4-[3-(4-fluorophenyl)-1H-pyrazol-4-yl]-2-pyridinyl]amino]-2-propanol]
inhibition in vivo at 5 mg/kg [1, 5]: 46% | inhibition in vivo at 20 mg/kg ([1]; Table 9, dose 20 mg/kg): 90% | IC50 [2, 6]: 1.92 µM | IC50 ([3]; Table 9, 10% DMSO): 0.16 µM

CN1CCN(Cc2n[nH]c(-c3ccc(F)cc3)c2-c2ccncc2)CC1 [A-313, Step 3, 1-[[5-(4-fluorophenyl)-4-(4-pyridinyl)-1H-pyrazol-3-yl]methyl]-4-methylpiperazine]
inhibition in vivo at 20 mg/kg ([1]; Table 8, dose 20.0 mg/kg): 96% | IC50 [2, 7]: 0.12 µM | IC50 ([3]; Table 8, 10% DMSO): 0.37 µM

CCN1CCCCC1CCNc1cc(-c2c[nH]nc2-c2ccc(F)cc2)ccn1 (centres unmarked) [Example A-358, N-[2-(1-ethyl-2-piperidinyl)ethyl]-4-[3-(4-fluorophenyl)-1H-pyrazol-4-yl]-2-pyridinamine]
inhibition in vivo at 20 mg/kg ([1]; Table 9, dose 20 mg/kg): 71% | IC50 [2, 6]: 4 µM | IC50 ([3]; Table 9, 10% DMSO): 0.23 µM

CCN(CC)CCCNc1n[nH]c(-c2ccc(F)cc2)c1-c1ccncc1 [Example A-364, N,N-diethyl-N′-[5-(4-fluorophenyl)-4-(4-pyridinyl)-1H-pyrazol-3-yl]-1,3-propanediamine]
inhibition in vivo at 20 mg/kg ([1]; Table 9, dose 20 mg/kg): 79% | IC50 [2, 6]: 0.255 µM | IC50 ([3]; Table 9, 10% DMSO): 0.49 µM

OC[C@@H](Nc1cc(-c2c[nH]nc2-c2ccc(F)cc2)ccn1)c1ccccc1 [Example A-362, (βS)-β-[[4-[3-(4-fluorophenyl)-1H-pyrazol-4-yl]-2-pyridinyl]amino]benzene ethanol]
inhibition in vivo at 20 mg/kg ([1]; Table 9, dose 20 mg/kg): 0% | IC50 [2, 6]: 5.5 µM | IC50 ([3]; Table 9, 10% DMSO): 0.69 µM

CN1CCC(Nc2n[nH]c(-c3ccc(F)cc3)c2-c2ccncc2)CC1 [Example A-338, N-[5-(4-fluorophenyl)-4-(pyridinyl)-1H-pyrazol-3-yl]-1-methyl-4-piperidinamine]
IC50 [2, 7]: 0.059 µM | IC50 ([3]; Table 8, 10% DMSO): 0.018 µM

Clc1ccc(-c2n[nH]c(SCCN3CCCC3)c2-c2ccncc2)cc1 [Example A-460]
IC50 [2, 8]: 8.91 µM | IC50 ([3]; Table 10, 10% DMSO, @ 1.0 hour): 1.84 µM

CCN(CC)CCCC(C)Nc1cc(-c2c[nH]nc2-c2ccc(Cl)cc2)ccn1 (centres unmarked) [Example A-369, N4-[4-[3-(4-chlorophenyl)-1H-pyrazol-4-yl]-2-pyridinyl]-N1,N1-diethyl-1,4-pentanediamine]
inhibition in vivo at 5 mg/kg [1, 5]: 52% | inhibition in vivo at 20 mg/kg ([1]; Table 9, dose 20 mg/kg): 94% | IC50 [2, 6]: 0.84 µM | IC50 ([3]; Table 9, 10% DMSO): 0.019 µM and 0.011 µM and 0.0027 µM

CS(=O)(=O)c1[nH]nc(-c2ccc(F)cc2)c1-c1ccncc1 [Example A-437, 3-(4-fluorophenyl)-5-(methylsulfonyl)-4-pyridin-4-yl-1H-pyrazole]
IC50 [2, 8]: > 25 µM | IC50 ([3]; Table 10, 10% DMSO, @ 1.0 hour): 7.76 µM

CC(=O)N1CCC(c2[nH]nc(-c3ccc(Cl)cc3)c2-c2ccncc2)CC1 [Example C-76]
IC50 [4, 9]: 0.07 µM | inhibition in vivo at 5 mg/kg [1, 10]: 66% | IC50 [2, 11]: 3.24 µM

CC(C)(N)C(=O)NCc1[nH]nc(-c2ccc(F)cc2)c1-c1ccncc1 [Example C-120]
IC50 [4, 9]: 0.7 µM | inhibition in vivo at 5 mg/kg [1, 12]: 26% | IC50 [2, 13]: 18.6 µM

CN1CCC[C@H]1c1[nH]nc(-c2ccc(F)cc2)c1-c1ccncc1 [Example C-124, (S)-5-(N-METHYL-2-PYROLIDINYL)-4-(4-PYRIDYL)-3-(4-FLUOROPHENYL)PYRAZOLE]
IC50 [4, 9]: 0.17 µM | inhibition in vivo at 5 mg/kg [1, 10]: 51% | IC50 [2, 11]: 4.56 µM

CC(=O)N1CCC(c2[nH]nc(-c3ccc(F)cc3)c2-c2ccncc2)CC1 [Example C-113]
IC50 [4, 9]: 0.082 µM | inhibition in vivo at 5 mg/kg [1, 10]: 77% | IC50 [2, 11]: 2.72 µM

CS(=O)(=O)N[C@H]1CC[C@@H](c2[nH]nc(-c3ccc(Cl)cc3)c2-c2ccncc2)CC1 [Example C-97, 5-cis-[4-N-(METHYLSULFONYL)AMINOCYCLOHEXYL]-4-(4-PYRIDYL)-3-(4-CHLOROPHENYL)PYRAZOLE]
IC50 [4, 9]: 0.025 µM | inhibition in vivo at 5 mg/kg [1, 10]: 21% | IC50 [2, 11]: 3.83 µM

Clc1ccc(-c2[nH]nc(N3CCN(c4ccccc4)CC3)c2-c2ccncc2)cc1 [Example A-335, 1-[5-(4-chlorophenyl)-4-(4-pyridinyl)-1H-pyrazol-3-yl]-4-phenylpiperazine]
IC50 [2, 7]: > 25 µM | IC50 ([3]; Table 8, 10% DMSO): 89.9 µM

CC(=N)N1CCC(c2[nH]nc(-c3ccc(F)cc3)c2-c2ccncc2)CC1 [Example C-107]
IC50 ([4]; P38 alpha kinase IC50, μM): 0.014 µM | inhibition in vivo at 5 mg/kg [1, 12]: 11% | IC50 [2, 13]: 0.38 µM

O=C(CO)N1CCC(c2[nH]nc(-c3cccc(Cl)c3)c2-c2ccncn2)CC1 [Example D-11, N-(2-Hydroxyacetyl)-5-(4-piperidyl)-4-(4-pyrimidyl)-3-(3-chlorophenyl)pyrazole]
IC50 ([4]; read-out: p38 alpha IC50): 0.16 µM | inhibition in vivo at 1 mg/kg ([1]; 4 hours before LPS challenge): 43% | inhibition in vivo at 5 mg/kg [1, 14]: 86% | IC50 [2, 15]: 1.5 µM

FC(F)(F)c1cccc(-c2n[nH]c(C3CCNCC3)c2-c2ccncc2)c1 [Example C-86]
IC50 [4, 9]: 0.007 µM | inhibition in vivo at 5 mg/kg [1, 10]: 66% | IC50 [2, 11]: 0.19 µM

CN1CCC(c2[nH]nc(-c3ccc(Cl)cc3)c2-c2ccncc2)CC1 [Example C-75]
IC50 [4, 9]: 0.045 µM | inhibition in vivo at 5 mg/kg [1, 10]: 71% | IC50 [2, 11]: 0.4 µM

CCOC(=O)N1CCC(Nc2n[nH]c(-c3ccc(F)cc3)c2-c2ccncc2)CC1 [Example A-337, Ethyl 4-[[5-(4-fluorophenyl)-4-(4-pyridinyl)-1H-pyrazol-3-yl]amino]-1-piperidinecarboxylate, monohydrate]
IC50 [2, 7]: > 25 µM | IC50 ([3]; Table 8, 10% DMSO): 1.35 µM

CN(C)c1ccc(Cc2[nH]nc(-c3ccc(Cl)cc3)c2-c2ccncc2)cc1 [Example C-117]
IC50 [4, 9]: 3.42 µM | inhibition in vivo at 5 mg/kg [1, 10]: 71% | IC50 [2, 11]: 7.26 µM

COCC(=O)N1CCC(c2[nH]nc(-c3ccc(Cl)cc3)c2-c2ccncn2)CC1 [Example D-3, N-(2-Methoxyacetyl)-5-(4-piperidyl)-4-(4-pyrimidyl)-3-(4-chlorophenyl)pyrazole (fumarate salt)]
IC50 ([4]; read-out: p38 alpha IC50): 0.095 µM | ratLPS/% Inh @20.0 (mg/kg) ([1]; 20.0 mg/kg oral gavage, 4 hours before LPS challenge): 91.0% | inhibition in vivo at 1 mg/kg ([1]; 4 hours before LPS challenge): 69% | inhibition in vivo at 5 mg/kg [1, 14]: 88% | IC50 [2, 15]: 0.46 µM

Clc1cccc(-c2n[nH]c(C3CCNCC3)c2-c2ccncc2)c1 [Example C-88]
IC50 [4, 9]: 0.012 µM | inhibition in vivo at 5 mg/kg [1, 10]: 59% | IC50 [2, 11]: 0.3 µM

Fc1ccc(-c2[nH]nc(NC3CCNCC3)c2-c2ccncc2)cc1 [Example A-339, N-[5-(4-fluorophenyl)-4-(4-pyridinyl)-1H-pyrazol-3-yl]-4-piperidinamine, trihydrochloride]
IC50 [2, 7]: 0.056 µM | IC50 ([3]; Table 8, 10% DMSO): 0.052 µM

Fc1ccc(-c2n[nH]c(CC3CCNCC3)c2-c2ccncc2)cc1 [Example A-315, 4-[3-(4-fluorophenyl)-5-(4-piperidinylmethyl)-1H-pyrazol-4-yl]pyridine]
IC50 [2, 7]: 1.75 µM | IC50 ([3]; Table 8, 10% DMSO): 0.049 µM

FC(F)(F)c1ccc(-c2n[nH]c(C3CCNCC3)c2-c2ccncc2)cc1 [Example C-83]
IC50 [4, 9]: 0.24 µM | inhibition in vivo at 5 mg/kg [1, 10]: 25% | IC50 [2, 11]: 1.23 µM

O=C(CO)N1CCC(c2[nH]nc(-c3cccc(F)c3)c2-c2ccncn2)CC1 [Example D-12, N4(2Hydroxyacetyl)-5-(4-piperidyl)-4-(4-pyrimidyl)-3-(3-fluorophenyl)pyrazole]
IC50 ([4]; read-out: p38 alpha IC50): 0.82 µM | inhibition in vivo at 1 mg/kg ([1]; 4 hours before LPS challenge): 71% | inhibition in vivo at 5 mg/kg [1, 14]: 91% | IC50 [2, 15]: 7.06 µM

CN1CCC(c2[nH]nc(-c3cccc(Cl)c3)c2-c2ccncc2)CC1 [Example C-89]
IC50 [4, 9]: 0.039 µM | inhibition in vivo at 5 mg/kg [1, 10]: 27% | IC50 [2, 11]: 0.12 µM

CC(C)N[C@H]1CC[C@@H](c2[nH]nc(-c3ccc(F)cc3)c2-c2ccncc2)CC1 [Example C-100, 5-cis-[4-N-(2-PROPYL)AMINOCYCLOHEXYL]-4-(4-PYRIDYL)-3-(4-FLUOROPHENYL)PYRAZOLE]
IC50 [4, 9]: 0.027 µM | inhibition in vivo at 5 mg/kg [1, 10]: 44% | IC50 [2, 11]: 0.27 µM
